Columns and labels:
Il-6 mRNA = Il-6 mRNA by RT-qPCR; assay type: cell-based
Il-1b mRNA = Il-1b mRNA by RT-qPCR; assay type: cell-based
[1] = test system: bone marrow derived macrophages (BMDMs); assay: LPS-induced glycolysis and inflammation in bone marrow derived macrophages; assay type: cell-based, mouse; conditions: 50 μM compound, 4 hours
Procedure: Macrophage were isolated as follows: femurs and tibia were collected from mice, cleaned of any soft tissues and the ends were cut off from each bone. The tibia and femur were then transferred into 1.5 mL Eppendorf tubes and the marrow was extracted via centrifugation (1900 g×5 min), resuspended in DMEM and strained through a 40 μm strainer into a 50 ml falcon tube. The strainer was rinsed with an additional 40 mL of DMEM, the cell suspension was transferred to a T175 flask, an additional 60 mL of DMEM was added and the cells were cultured at 37° C. for 4 hours. Differentiation was initiated by adding 20 mL of L929 fibroblast conditioned media and 12 mL was plated on 100 mm dishes. The cells were then left for 7 days to differentiate into macrophages. The media was then aspirated, cells were scraped in 3 mL of DMEM, then pooled and diluted at a ratio of 1:2 with DMEM. The cell suspension was plated in 12-well plates and cells were allowed to adhere overnight. […] Changes in gene expression were calculated using 2-delta cT method. Macrophage glycolytic rates were assessed using a Seahorse Bioanalyzer (XFe96, Agilent Scientific Instruments). […] The following day cells were serum-starved for 2 hours then treated with LPS (100 ng/mL) and Compound I-1 (50 μM) and glycolytic rate was analyzed (Agilent Seahorse XFp Cell Energy Phenotype Test Kit, Cat #103275-100).

**Q.** `CC(C)(CCCCc1ccc(CCCCC(C)(C)C(=O)O)cc1)C(=O)O` [Compound I-1, 6-[4-(5-carboxy-5-methylhexyl)-phenyl]-2,2-dimethylhexanoic acid] was tested. Which “marker of inflammation, Il-6 mRNA” value (Il-6 mRNA) did it give?
**A.** suppression

**Q.** And the “marker of inflammation, Il-1b mRNA” value (Il-1b mRNA)?
**A.** suppression

**Q.** And the “LPS-induced glycolysis (Seahorse) and inflammation (Il-6, Il-1b mRNA)” value [1]?
**A.** suppression of LPS-induced glycolysis and inflammation

Reference: US11730712B2, “Functionalized long-chain hydrocarbon mono- and di-carboxylic acids and derivatives thereof, and their use for the prevention or treatment of disease” (ESPERVITA THERAPEUTICS, INC., priority 2021, dated 2023)
